Data on 22 molecules can be found in patent publication US9562053B2, “Benzo-fused heterocyclic derivatives useful as agonists of GPR120” (Janssen Pharmaceutica NV, priority 2013, dated 2017).

The target in this assay is T1, Human GPR120 short form (Homo sapiens, UniProt Q5NUL3).
T1 construct: expressed in transfected cells
T1 sequence (Q5NUL3 1-361): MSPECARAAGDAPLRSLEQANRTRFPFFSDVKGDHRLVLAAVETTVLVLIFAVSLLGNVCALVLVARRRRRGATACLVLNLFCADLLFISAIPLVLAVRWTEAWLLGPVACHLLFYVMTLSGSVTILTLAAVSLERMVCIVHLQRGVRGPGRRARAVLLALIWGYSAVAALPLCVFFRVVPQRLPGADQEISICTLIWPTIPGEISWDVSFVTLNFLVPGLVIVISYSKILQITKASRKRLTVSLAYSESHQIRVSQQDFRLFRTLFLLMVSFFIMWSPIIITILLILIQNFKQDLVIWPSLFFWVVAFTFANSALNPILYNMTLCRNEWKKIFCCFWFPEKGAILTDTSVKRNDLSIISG
In words: Human GPR120 in Calcium Flux Assay, Procedure Calcium A (2500 cells/well). The class given is cell-based. An excerpt: This in vitro assay serves to assess test compound agonist activity against the short splice variant (SVS with Accession number NM_001195755.1 confirmed by sequencing data) of the GPR120 receptor. The Human Short splice variant #2 (NM_001195755.1) is missing an in-frame coding exon compared to variant 1 (the Human Long splice variant NM_181745.3), resulting in a shorter isoform (GPR120-S) lacking a 16 aa protein segment compared to isoform GPR120-L. The assay platform utilizes HEK-293 cells stably transfected to express the Human GPR120 short form. These cells are first loaded with the Ca^+2 sensitive dye, Fluo-4 NW. Upon stimulation, intracellular released Ca^+2 can bind to the dye and alter its fluorescence intensity. This increase in fluorescence signal, and thus the flux in intracellular [Ca^+2], is detected and quantitated by fluorescence imaging using a FLIPR reader. The effect of the agonist is measured as a function of concentration and used to calculate an EC50 based upon a response curve.
In this procedure 2500 cells/well were employed.
A Human GPR120 clone (Genbank accession number NM_001195755.1) was placed into the pcDNA3.1 mammalian expression vector carrying the neomycin resistance gene. A stable mammalian cell was generated by placing the above clone into a HEK293 background. Clonal cells responding to long chain fatty acids had expression levels of GPR120 confirmed by RT-qPCR. Human HEK-GPR120 cells were cultured in Dulbecco's Modified Eagle's Medium (DMEM)/F12 medium supplemented with 10% fetal bovine serum (FBS), 1% L-Glutamine and 1% penicillin/streptomycin and 0.5 mg/ml G-418. Cells were split 2 times a week to keep the cells in the log-phase growth.
In preparation for the assay, HEK cells stably transfected with Human GPR120 (2.5K cells per well in 25 uL growth medium) were seeded into 384-well plates and then incubated overnight (37° C., 5% CO2). The next day, the media was changed to 20 μl assay buffer and the cell starved for 1 h at 37° C. The dye loading solution (2× dye) was prepared using 10 ml assay buffer, 100 μl of 250 mM probenecid, 1 bottle of Component A, and 20 μl of dye in DMSO. Twenty μl of the 2× dye loading buffer was then added to each well. The plates were incubated at 37° C. for 30 min, then at room temperature for an additional 15 minutes, before performing the assay on FLIPR.
Test compounds were prepared in assay buffer (2 μl of test compound+198 μl assay buffer, final DMSO in assay plate is 0.2%) at the desired concentration, more particularly at 100 μM, 50 μM, 25 μM, 12.5 μM, 6.25 μM, 3.125 μM, 1.562 μM, 0.781 μM, 0.391 μM, 0.195 μM, 0.098 μM, 0.049 μM, 0.024 μM and 0.012 μM.
The assay was performed on a FLIPR plate reader using the following parameters. Baseline was read for 10 seconds at 1 sec intervals. The program was set to transfer 10 μL of ligand from compound plate to cell plate after baseline reading. Aspiration was executed at: 10 μl/sec speed, 4.6 μl height; Dispensing was executed at: 30 μl/sec speed, 45 μl height. After compound addition, each well was read for 300 sec, with measurements collected at 1 sec intervals.
The kinetic data from the FLIPR was based upon a 5 minute window for data collection. The fluorescence of each sample well was used for individual calculations of a normalized RFU value, which was defined as maximum response minus the minimum response. The normalized fluorescence reading (RFU) was calculated as follows: RFU=Fmax−Fmin
The data were fitted to a sigmoidal dose-response curve with a variable Hill slope (<2) using nonlinear regression with GraphPad Prism 5.0 to calculate the EC50 values. The Fitting Equation was: Y=Bottom+(Top−Bottom)/(1+10^((LogEC50−X)*HillSlope)), where X is the log of the concentration and Y is the response.
Regarding `Cc1c(CCC(=O)O)ccc(OCc2cc(F)cc3cc(CCC(C)C)oc23)c1C` [Compound 9, 3-(4-{[5-Fluoro-2-(3-methylbutyl)-1-benzofuran-7-yl]methoxy}-2,3-dimethylphenyl)propanoic acid], the EC50 (usually the concentration needed to bring the measured effect to its halfway point) turned out to be 2.75 µM.
For the molecule `COCCc1cc2cc(F)cc(COc3ccc(CCC(=O)O)c(C)c3C)c2o1` [Compound 10, 3-(4-{[5-Fluoro-2-(2-methoxyethyl)-1-benzofuran-7-yl]methoxy}-2,3-dimethylphenyl)propanoic acid], the EC50 was 0.424 µM.
For the molecule `Cc1c(CCC(=O)O)ccc(OCc2cc(F)cc3cc(CO)oc23)c1C` [Compound 14, 3-(4-{[5-Fluoro-2-(hydroxymethyl)-1-benzofuran-7-yl]methoxy}-2,3-dimethylphenyl)propanoic acid], the EC50 is 1.32 µM.
As to `Cc1c(CCC(=O)O)ccc(OCc2cc(F)cc3cc(CCO)oc23)c1C` [Compound 15, 3-(4-{[5-Fluoro-2-(2-hydroxyethyl)-1-benzofuran-7-yl]methoxy}-2,3-dimethylphenyl)propanoic acid], the EC50 was found to be 4.75 µM.
The same measure for `Cc1c(CCC(=O)O)ccc(OCc2cc(F)cc3cc(CC4CCCC4)oc23)c1C` [Compound 19, 3-(4-{[2-(Cyclopentylmethyl)-5-fluoro-1-benzofuran-7-yl]methoxy}-2,3-dimethylphenyl)propanoic acid]: 1.68 µM; for `Cc1c(CCC(=O)O)ccc(OCc2cc(F)cc3cc(Cc4ccccc4)oc23)c1C` [Compound 20, 3-{4-[(2-Benzyl-5-fluoro-1-benzofuran-7-yl)methoxy]-2,3-dimethylphenyl}propanoic acid]: 5.29 µM.
Take `CCc1cc2cc3c(c(COc4ccc(CCC(=O)O)c(C)c4C)c2o1)CC(C)(C)O3` [Compound 30, 3-{4-[(6-Ethyl-2,2-dimethyl-2,3-dihydrobenzo[1,2-b:4,5-b′]difuran-4-yl)methoxy]-2,3-dimethylphenyl}propanoic acid]: the EC50 was determined as 0.759 µM.
To `CCc1cc2cc(F)cc(COc3cc(C)c(CCC(=O)O)cn3)c2o1` [Compound 33, 3-{6-[(2-Ethyl-5-fluoro-1-benzofuran-7-yl)methoxy]-4-methylpyridin-3-yl}propanoic acid] belongs 1.11 µM; to `CCCc1cc2cc(Cl)cc(COc3cc(C)c(CCC(=O)O)cn3)c2o1` [Compound 34, 3-{6-[(5-Chloro-2-propyl-1-benzofuran-7-yl)methoxy]-4-methylpyridin-3-yl}propanoic acid], 1.02 µM; to `C#Cc1cc(COc2ccc(CCC(=O)O)c(C)c2C)c2oc(CCC)cc2c1` [Compound 38, 3-{4-[(5-Ethynyl-2-propyl-1-benzofuran-7-yl)methoxy]-2,3-dimethylphenyl}propanoic acid], 0.028 µM.
`CCc1cc2cc(OC(F)(F)F)cc(COc3cc(CCC(C)C)c(CCC(=O)O)cc3F)c2o1` [Compound 51, 3-[4-{[2-Ethyl-5-(trifluoromethoxy)-1-benzofuran-7-yl]methoxy}-5-fluoro-2-(3-methylbutyl)phenyl]propanoic acid]: the EC50 came out at 0.392 µM.
For the molecule `CCc1cc2cc(OC(F)(F)F)cc(COc3cc(CC(C)C)c(CCC(=O)O)cc3F)c2o1` [Compound 53, 3-[4-{[2-Ethyl-5-(trifluoromethoxy)-1-benzofuran-7-yl]methoxy}-5-fluoro-2-(2-methylpropyl)phenyl]propanoic acid], the EC50 was found to be 0.673 µM.
The same measure for `Cc1cc2cc(Cl)cc(COc3c(F)cc(CCC(=O)O)cc3F)c2s1` [Compound 92, 3-{4-[(5-Chloro-2-methyl-1-benzothiophen-7-yl)methoxy]-3,5-difluorophenyl}propanoic acid]: 0.417 µM; for `Cc1c(CCC(=O)O)ccc(OCc2cc(OC(F)(F)F)cc3cc(CCO)oc23)c1C` [Compound 94, 3-(4-{[2-(2-Hydroxyethyl)-5-(trifluoromethoxy)-1-benzofuran-7-yl]methoxy}-2,3-dimethylphenyl)propanoic acid]: 0.274 µM; for `Cc1nc2c(COc3ccc(CCC(=O)O)c(C)c3C)cc(Cl)cc2o1` [Compound 95, 3-{4-[(6-Chloro-2-methyl-1,3-benzoxazol-4-yl)methoxy]-2,3-dimethylphenyl}propanoic acid]: 0.134 µM.
The same measure for `Cc1cc2cc(C#CCS(C)(=O)=O)cc(COc3ccc(CCC(=O)O)c(C)c3C)c2o1` [Compound 99, 3-[2,3-Dimethyl-4-({2-methyl-5-[3-(methylsulfonyl)prop-1-yn-1-yl]-1-benzofuran-7-yl}methoxy)phenyl]propanoic acid]: greater than 5 µM; for `Cc1cc2cc(CCCS(C)(=O)=O)cc(COc3ccc(CCC(=O)O)c(C)c3C)c2o1` [Compound 100, 3-[2,3-Dimethyl-4-({2-methyl-5-[3-(methylsulfonyl)propyl]-1-benzofuran-7-yl}methoxy)phenyl]propanoic acid]: greater than 5 µM.
With `Cc1cc2c(COc3ccc(CCC(=O)O)c(C)c3C)cc(Cl)cc2s1` [Compound 101, 3-{4-[(6-Chloro-2-methyl-1-benzothiophen-4-yl)methoxy]-2,3-dimethylphenyl}propanoic acid], the EC50 came to 3.2 µM.
In the case of `Cc1cc2c(COc3c(F)cc(CCC(=O)O)cc3F)cc(Cl)cc2s1` [Compound 102, 3-{4-[(6-Chloro-2-methyl-1-benzothiophen-4-yl)methoxy]-3,5-difluorophenyl}propanoic acid], the EC50 is greater than 5 µM.
`Cc1cc2c(COc3c(F)cc(CCCO)cc3F)cc(Cl)cc2s1` [Compound 103, 3-{4-[(6-Chloro-2-methyl-1-benzothiophen-4-yl)methoxy]-3,5-difluorophenyl}propan-1-ol]: the EC50 was 3 µM.
As to `Cc1oc2c(COc3c(Br)cc(CCC(=O)O)c(C)c3C)cc(OC(F)(F)F)cc2c1Br` [Compound 120, 3-(5-Bromo-4-{[3-bromo-2-methyl-5-(trifluoromethoxy)-1-benzofuran-7-yl]methoxy}-2,3-dimethylphenyl)propanoic acid], the EC50 stood at 1.54 µM.
To `CCc1cc2cc(C#N)cc(COc3ccc(CCC(=O)O)c(C)c3C)c2o1` [Compound 123, 3-(4-((5-cyano-2-ethylbenzofuran-7-yl)methoxy)-2,3-dimethylphenyl)propanoic acid] belongs 1.41 µM.
